Source: US11970498B2, “CDK2 inhibitors” (BLUEPRINT MEDICINES CORPORATION, priority 2021, dated 2024)

Columns and labels:
CDK1/Cyclin B1, GST-tag = target: T1, CDK1/Cyclin B1, GST-tag (Homo sapiens, UniProt P06493); assay: CDK1/Cyclin B1 biochemical phosphorylation assay (Caliper mobility shift); details: apparent IC50; 1.0 mM ATP or ATP Km; 1.5 nM enzyme; 25° C.
T1 construct: GST
Procedure: (§1) Inhibitory effects of the compounds of the disclosure were measured in biochemical assays that measure the enzymatic phosphorylation activity of CDK enzyme in complex of Cyclin proteins phosphorylates 7.5 micromolar fluorescently labelled peptide substrate, 5-FAM-QSPKKG-CONH2, (FL-Peptide 18, Perkin Elmer, 760362) in the presence of adenosine-5′-triphosphate (ATP) and varying concentrations of the test compound in 100 mM 2-[4-(2-hydroxyethyl)piperazin-1-yl] ethanesulfonic acid (HEPES), pH 7.5, 10 mM MgCl2, 0.015% Brij-35, 1 mM dithiothreitol (DTT), 1.0% dimethylsulfoxide (DMSO). Assays were performed at 1.0 mM ATP or at ATP Km of the CDK enzymes in complex with Cyclin proteins. Reactions proceeded until between 10% to 20% total peptides were phosphorylated at room temperature (25° C.) and were terminated with 35 mM 2,2′,2″,2′″-(ethane-1,2-diyldinitrilo)tetraacetic acid (EDTA). Product was detected using the Caliper mobility shift detection method where the phosphorylated peptide (product) and substrate were electrophoretically separated and measured. Percent activity was plotted against log concentration of compound and points to generate an apparent IC50. The following CDK enzymes in complex with different cyclin proteins were used in these assays: • CDK1/Cyclin B1, GST-tag (BPS, 40454), 1.5 nM used in the assay • CDK2/Cyclin E (Eurofins, 14-475), 1.25 nM used in the assays
(§2) For inhibitory activity against CDK2/Cyclin E mutant, the following designations are used: ≤10 nM=A; >10-20 nM=B; >20-30 nM=C; >30-100 nM=D and >100=E. For inhibition CDK1/Cyclin B1, GST-tag: ≥500 nM=A; <100-500 nM=B; <100 nM=C.

CDK2/Cyclin E = CDK2/Cyclin E (Homo sapiens, UniProt P24941); assay: CDK2/Cyclin E biochemical phosphorylation assay (Caliper mobility shift); details: apparent IC50; 1.0 mM ATP or ATP Km; 1.25 nM enzyme; 25° C.; read-out: CDK2/cyclin E1 IC50
Procedure: as §1, §2

T1 sequence (P06493 whole entry): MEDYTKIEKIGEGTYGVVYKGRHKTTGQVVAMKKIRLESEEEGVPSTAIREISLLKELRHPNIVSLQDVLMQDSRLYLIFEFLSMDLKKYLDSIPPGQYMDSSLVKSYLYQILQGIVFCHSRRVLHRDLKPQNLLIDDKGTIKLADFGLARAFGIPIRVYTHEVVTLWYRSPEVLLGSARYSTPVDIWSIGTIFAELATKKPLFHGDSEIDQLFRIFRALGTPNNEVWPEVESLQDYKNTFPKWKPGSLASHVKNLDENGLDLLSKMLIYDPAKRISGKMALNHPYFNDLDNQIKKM
T1 sequence (P14635 whole entry partner): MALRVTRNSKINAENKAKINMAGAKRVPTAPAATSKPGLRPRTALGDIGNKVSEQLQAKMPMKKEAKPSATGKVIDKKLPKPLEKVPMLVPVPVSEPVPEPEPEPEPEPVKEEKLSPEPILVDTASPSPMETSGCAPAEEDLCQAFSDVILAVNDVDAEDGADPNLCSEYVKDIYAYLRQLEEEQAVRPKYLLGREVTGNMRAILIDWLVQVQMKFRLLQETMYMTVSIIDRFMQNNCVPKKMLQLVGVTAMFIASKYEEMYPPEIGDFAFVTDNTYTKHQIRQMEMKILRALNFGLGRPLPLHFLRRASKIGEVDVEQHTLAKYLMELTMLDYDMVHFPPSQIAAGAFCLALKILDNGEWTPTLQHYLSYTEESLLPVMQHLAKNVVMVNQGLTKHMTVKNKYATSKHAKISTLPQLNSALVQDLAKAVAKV

Row | SMILES | IC50 (CDK1/Cyclin B1, GST-tag) [nM] | IC50 (CDK2/Cyclin E) [nM]
1 | O[C@H]1C[C@H](n2ncc3ncc(Nc4cc(OC(F)F)[nH]n4)nc32)C1 (single isomer, unassigned) [Example 145, (1r,3r)-3-(6-((5-(difluoromethoxy)-1H-pyrazol-3-yl)amino)-1H-pyrazolo[3,4-b]pyrazin-1-yl)cyclobutan-1-ol or (1s,3s)-3-(6-((5-(difluoromethoxy)-1H-pyrazol-3-yl)amino)-1H-pyrazolo[3,4-b]pyrazin-1-yl)cyclobutan-1-ol] | ≥ 500 | > 100
2 | FC(F)Oc1cc(Nc2cnc3cnn(Cc4ccno4)c3n2)n[nH]1 [Example 134, N-(5-(difluoromethoxy)-1H-pyrazol-3-yl)-1-(isoxazol-5-ylmethyl)-1H-pyrazolo[3,4-b]pyrazin-6-amine] | ≥ 500 | 10 to 20
3 | FC[C@H](c1ccccc1)n1ncc2ncc(Nc3cc(OC(F)F)[nH]n3)nc21 (single isomer, unassigned) [Example 90, (S)-N-(5-(difluoromethoxy)-1H-pyrazol-3-yl)-1-(2-fluoro-1-phenylethyl)-1H-pyrazolo[3,4-b]pyrazin-6-amine or (R)-N-(5-(difluoromethoxy)-1H-pyrazol-3-yl)-1-(2-fluoro-1-phenylethyl)-1H-pyrazolo[3,4-b]pyrazin-6-amine] | ≥ 500 | 30 to 100
4 | CC(C)(C1CC1)n1ncc2ncc(Nc3cc(OC(F)F)[nH]n3)nc21 [Example 23, 1-(2-cyclopropylpropan-2-yl)-N-(5-(difluoromethoxy)-1H-pyrazol-3-yl)-1H-pyrazolo[3,4-b]pyrazin-6-amine] | 100 to 500 | ≤ 10
5 | CC(C)Cn1ncc2ncc(Nc3cc(OC(F)F)[nH]n3)nc21 [Example 100, N-(5-(difluoromethoxy)-1H-pyrazol-3-yl)-1-isobutyl-1H-pyrazolo[3,4-b]pyrazin-6-amine] | ≥ 500 | 10 to 20
6 | C[C@H](C1CCOCC1)n1ncc2ncc(Nc3cc(OC(F)F)[nH]n3)nc21 [Example 34, (R)-N-(5-(difluoromethoxy)-1H-pyrazol-3-yl)-1-(1-(tetrahydro-2H-pyran-4-yl)ethyl)-1H-pyrazolo[3,4-b]pyrazin-6-amine] | ≥ 500 | 10 to 20
7 | C[C@@H](c1ccc(F)nc1)n1ncc2ncc(Nc3cc(OC(F)F)[nH]n3)nc21 (single isomer, unassigned) [Example 152, (R)-N-(5-(difluoromethoxy)-1H-pyrazol-3-yl)-1-(1-(6-fluoropyridin-3-yl)ethyl)-1H-pyrazolo[3,4-b]pyrazin-6-amine or (S)-N-(5-(difluoromethoxy)-1H-pyrazol-3-yl)-1-(1-(6-fluoropyridin-3-yl)ethyl)-1H-pyrazolo[3,4-b]pyrazin-6-amine] | ≥ 500 | 20 to 30
8 | FC(F)Oc1cc(Nc2cnc3cnn([C@@H]4CCCOC4)c3n2)n[nH]1 [Example 78, (R)-N-(5-(difluoromethoxy)-1H-pyrazol-3-yl)-1-(tetrahydro-2H-pyran-3-yl)-1H-pyrazolo[3,4-b]pyrazin-6-amine] | ≥ 500 | 30 to 100
9 | C[C@@H]([C@@H]1COCCO1)n1ncc2ncc(Nc3cc(OC(F)F)[nH]n3)nc21 (single isomer, unassigned) [Example 214] | ≥ 500 | 10 to 20
10 | C[C@@H](CO)Cn1ncc2ncc(Nc3cc(OC(F)F)[nH]n3)nc21 [Example 198, (R)-3-(6-((5-(difluoromethoxy)-1H-pyrazol-3-yl)amino)-1H-pyrazolo[3,4-b]pyrazin-1-yl)-2-methylpropan-1-ol] | ≥ 500 | 30 to 100
11 | FC(F)Oc1cc(Nc2cnc3cnn(CC4COC4)c3n2)n[nH]1 [Example 85, N-(5-(difluoromethoxy)-1H-pyrazol-3-yl)-1-(oxetan-3-ylmethyl)-1H-pyrazolo[3,4-b]pyrazin-6-amine] | ≥ 500 | 10 to 20
